# Measurements taken from patent US20240293421A1, “CRYSTALLINE COMPOSITION OF TILDACERFONT AND METHODS OF USE AND PREPARATION THEREOF” (Spruce Biosciences, Inc., priority 2021, published 2024).
# Tests used:
# [1] = Stability under long-term storage conditions (25±2° C./60±5% RH); type: physicochemical; design: key to Related Substances by HPLC: a. C07102401-F-Imp1 / Related Substances by HPLC: b. C07102401-F-Imp2 / Related Substances by HPLC: c. Any unspecified impurity / Related Substances by HPLC: d. Total impurities: BDRL: below disregard limit; conditions: for Description / Identification by FT-IR / Identification by XRPD / Related Substances by HPLC: a. C07102401-F-Imp1 / Related Substances by HPLC: b. C07102401-F-Imp2 / Related Substances by HPLC: c. Any unspecified impurity / Related Substances by HPLC: d. Total impurities / Water Content by KF / Assay of Compound 1 by HPLC: long-term storage 25±2° C./60±5% RH; for Assay of Compound 1 by HPLC: on anhydrous basis and solvent free basis
# Description: (§1) To determine the stability of the crystalline compositions prepared comprising the methods described herein, crystalline compositions comprising Compound 1 and oxalic acid were formulated. Samples of the crystalline composition comprising Compound 1-oxalic acid co-crystal were packed in a transparent low-density polyethylene (LDPE) bag, and closed by twisting the bag and tying it with a strip seal. The transparent LDPE bag was then placed in a black LDPE bag that was twisted and tied with a strip seal. The bags were then placed in a high-density polyethylene container. The samples were then subjected to accelerated aging conditions (40±2° C./75±5% relative humidity (RH)) or long-term storage conditions (25±2° C./60±5% RH). Sample stability measurements in each condition were measured at baseline (before exposure to accelerated aging conditions or long-term storage conditions), and one month, two months, and three months after exposure to said conditions. Sample stability measurements included a description of the sample's physical appearance (e.g., color and form), identification by Fourier-transform infrared spectroscopy (FT-IR), identification by X-ray powder diffraction (XRPD), water content (measured by Karl Fischer (KF) on a % weight/weight basis), identification of related substances (e.g., impurities), and high-performance liquid chromatography ((HPLC) measured on a % weight/weight on an anhydrous basis and solvent free basis). Samples of the crystalline composition comprising Compound 1-oxalic acid co-crystal prepared in Example 3 are subjected to accelerated aging conditions (40±2° C./75±5% relative humidity (RH)) or long-term storage conditions (25±2° C./60±5% RH). Sample stability measurements in each condition are measured at baseline (before exposure to accelerated aging conditions or long-term storage conditions), and four months, five months, six months, seven months, eight months, nine months, ten months, eleven months, twelve months, fourteen months, sixteen months, and eighteen months after exposure to said conditions. Sample stability measurements include a description of the sample's physical appearance (e.g., color and form), identification by Fourier-transform infrared spectroscopy (FT-IR), identification by X-ray powder diffraction (XRPD), water content (measured by Karl Fischer (KF) on a % weight/weight basis), identification of related substances (e.g., impurities), and high-performance liquid chromatography ((HPLC) measured on a % weight/weight on an anhydrous basis and solvent free basis).
# [2] = Stability under accelerated aging conditions (40±2° C./75±5% RH); type: physicochemical; design: key to Related Substances by HPLC: a. C07102401-F-Imp1 / Related Substances by HPLC: b. C07102401-F-Imp2 / Related Substances by HPLC: c. Any unspecified impurity / Related Substances by HPLC: d. Total impurities: BDRL: below disregard limit; conditions: for Description / Identification by FT-IR / Identification by XRPD / Related Substances by HPLC: a. C07102401-F-Imp1 / Related Substances by HPLC: b. C07102401-F-Imp2 / Related Substances by HPLC: c. Any unspecified impurity / Related Substances by HPLC: d. Total impurities / Water Content by KF / Assay of Compound 1 by HPLC: accelerated aging 40±2° C./75±5% RH; for Assay of Compound 1 by HPLC: on anhydrous basis and solvent free basis
# Description: as §1
compound,measurement,setting,value
CCC(CC)c1cc(C)nc2c(-c3sc(N4CCOCC4)nc3Cl)c(C)nn12 [Compound 1-oxalic acid co-crystal],Description,[1]; 1 month,Light yellow
same,Identification by FT-IR,[1]; 1 month,concordant
same,Identification by XRPD,[1]; 1 month,is consistent
same,Related Substances by HPLC: a. C07102401-F-Imp1,[1]; 1 month,BDRL
same,Related Substances by HPLC: b. C07102401-F-Imp2,[1]; 1 month,BDRL
same,Related Substances by HPLC: c. Any unspecified impurity,[1]; 1 month,BDRL
same,Related Substances by HPLC: d. Total impurities,[1]; 1 month,BDRL
same,Water Content by KF,[1]; 1 month,0.10 % w/w
same,Description,[1]; 2 months,Light yellow
same,Identification by FT-IR,[1]; 2 months,concordant
same,Identification by XRPD,[1]; 2 months,is consistent
same,Related Substances by HPLC: a. C07102401-F-Imp1,[1]; 2 months,BDRL
same,Related Substances by HPLC: b. C07102401-F-Imp2,[1]; 2 months,BDRL
same,Related Substances by HPLC: c. Any unspecified impurity,[1]; 2 months,BDRL
same,Related Substances by HPLC: d. Total impurities,[1]; 2 months,BDRL
same,Water Content by KF,[1]; 2 months,0.03 % w/w
same,Description,[1]; 3 months,Light yellow
same,Identification by FT-IR,[1]; 3 months,concordant
same,Identification by XRPD,[1]; 3 months,is consistent
same,Related Substances by HPLC: a. C07102401-F-Imp1,[1]; 3 months,BDRL
same,Related Substances by HPLC: b. C07102401-F-Imp2,[1]; 3 months,BDRL
same,Related Substances by HPLC: c. Any unspecified impurity,[1]; 3 months,BDRL
same,Related Substances by HPLC: d. Total impurities,[1]; 3 months,BDRL
same,Water Content by KF,[1]; 3 months,0.05 % w/w
same,Description,[1]; baseline,Light yellow
same,Identification by FT-IR,[1]; baseline,concordant
same,Identification by XRPD,[1]; baseline,is consistent
same,Related Substances by HPLC: a. C07102401-F-Imp1,[1]; baseline,BDRL
same,Related Substances by HPLC: b. C07102401-F-Imp2,[1]; baseline,BDRL
same,Related Substances by HPLC: c. Any unspecified impurity,[1]; baseline,BDRL
same,Related Substances by HPLC: d. Total impurities,[1]; baseline,BDRL
same,Water Content by KF,[1]; baseline,0.02 % w/w
same,Assay of Compound 1 by HPLC,[1]; 1 month,99.2 % w/w
same,Assay of Compound 1 by HPLC,[1]; 2 months,100.1 % w/w
same,Assay of Compound 1 by HPLC,[1]; 3 months,99.2 % w/w
same,Assay of Compound 1 by HPLC,[1]; baseline,99.9 % w/w
same,Stability (overall conclusion),[1]; up to 3 months at long-term storage conditions (25±2° C./60±5% RH),stable
same,Description,[2]; 1 month,Light yellow
same,Identification by FT-IR,[2]; 1 month,concordant
same,Identification by XRPD,[2]; 1 month,is consistent
same,Related Substances by HPLC: a. C07102401-F-Imp1,[2]; 1 month,BDRL
same,Related Substances by HPLC: b. C07102401-F-Imp2,[2]; 1 month,BDRL
same,Related Substances by HPLC: c. Any unspecified impurity,[2]; 1 month,BDRL
same,Related Substances by HPLC: d. Total impurities,[2]; 1 month,BDRL
same,Water Content by KF,[2]; 1 month,0.09 % w/w
same,Description,[2]; 2 months,Light yellow
same,Identification by FT-IR,[2]; 2 months,concordant
same,Identification by XRPD,[2]; 2 months,is consistent
same,Related Substances by HPLC: a. C07102401-F-Imp1,[2]; 2 months,BDRL
same,Related Substances by HPLC: b. C07102401-F-Imp2,[2]; 2 months,BDRL
same,Related Substances by HPLC: c. Any unspecified impurity,[2]; 2 months,BDRL
same,Related Substances by HPLC: d. Total impurities,[2]; 2 months,BDRL
same,Water Content by KF,[2]; 2 months,0.02 % w/w
same,Description,[2]; 3 months,Light yellow
same,Identification by FT-IR,[2]; 3 months,concordant
same,Identification by XRPD,[2]; 3 months,is consistent
same,Related Substances by HPLC: a. C07102401-F-Imp1,[2]; 3 months,BDRL
same,Related Substances by HPLC: b. C07102401-F-Imp2,[2]; 3 months,BDRL
same,Related Substances by HPLC: c. Any unspecified impurity,[2]; 3 months,BDRL
same,Related Substances by HPLC: d. Total impurities,[2]; 3 months,BDRL
same,Water Content by KF,[2]; 3 months,0.08 % w/w
same,Description,[2]; baseline,Light yellow
same,Identification by FT-IR,[2]; baseline,concordant
same,Identification by XRPD,[2]; baseline,is consistent
same,Related Substances by HPLC: a. C07102401-F-Imp1,[2]; baseline,BDRL
same,Related Substances by HPLC: b. C07102401-F-Imp2,[2]; baseline,BDRL
same,Related Substances by HPLC: c. Any unspecified impurity,[2]; baseline,BDRL
same,Related Substances by HPLC: d. Total impurities,[2]; baseline,BDRL
same,Water Content by KF,[2]; baseline,0.02 % w/w
same,Assay of Compound 1 by HPLC,[2]; 1 month,99.2 % w/w
same,Assay of Compound 1 by HPLC,[2]; 2 months,100.1 % w/w
same,Assay of Compound 1 by HPLC,[2]; 3 months,99.2 % w/w
same,Assay of Compound 1 by HPLC,[2]; baseline,99.9 % w/w
same,Stability (overall conclusion),[2]; up to 3 months at accelerated aging conditions (40±2° C./75±5% RH),stable
